Drawing on patent publication US12195469B2, “Compounds having PDE9A inhibitory activity, and pharmaceutical uses thereof” (KOREA RESEARCH INSTITUTE OF CHEMICAL TECHNOLOGY, priority 2018, dated 2025), this text covers IC50 and inhibition for 28 compounds.

In this assay the target is PDE9A (Homo sapiens (Human), UniProt O76083). Description: PDE9A inhibition, fluorescence polarization assay (IMAP-FP screening express kit). In kind it is biochemical. The note with it: for IC50: Fl-cGMP substrate 100 nM, PDE9A 5 ng/ml, 1 hour at room temperature; for inhibition at 10 µM: 10 μM of the compound. The procedure: The inhibitory activity of the representative compounds according to the present invention against phosphodiesterase 9A was tested based on the polarization assay (IMAP-FP screening express kit) provided by MDS (MDS Analytical Technologies, Sunyvale, CA, USA). As a buffer solution, a reaction solution (a reaction solution containing 0.01% Tween 20 provided by MDS was diluted 5 times, then 5 mM DTT is added) and a polarization detection solution (binding solution A and B provided by MDS were mixed at a ratio of 3:1 and IMAP binding reagent 1/600 was added) were prepared. 100 μM of the substrate (Fl-cGMP substrate; MDS) and 3.6 μg/ml of the enzyme PDE9A (ab54113; abcam) were prepared. 3.6 μg/ml PDE9A and 100 μM substrate were diluted to 20 ng/ml (final reaction concentration: 5 ng/ml) and 400 nM (final reaction concentration: 100 nM), respectively. The buffer solution used for all dilution and preparation processes was 1× reaction solution with 1 mM DTT added, and the polarization detection solution was used to induce polarization at the end.
Sequence of PDE9A (O76083 whole entry): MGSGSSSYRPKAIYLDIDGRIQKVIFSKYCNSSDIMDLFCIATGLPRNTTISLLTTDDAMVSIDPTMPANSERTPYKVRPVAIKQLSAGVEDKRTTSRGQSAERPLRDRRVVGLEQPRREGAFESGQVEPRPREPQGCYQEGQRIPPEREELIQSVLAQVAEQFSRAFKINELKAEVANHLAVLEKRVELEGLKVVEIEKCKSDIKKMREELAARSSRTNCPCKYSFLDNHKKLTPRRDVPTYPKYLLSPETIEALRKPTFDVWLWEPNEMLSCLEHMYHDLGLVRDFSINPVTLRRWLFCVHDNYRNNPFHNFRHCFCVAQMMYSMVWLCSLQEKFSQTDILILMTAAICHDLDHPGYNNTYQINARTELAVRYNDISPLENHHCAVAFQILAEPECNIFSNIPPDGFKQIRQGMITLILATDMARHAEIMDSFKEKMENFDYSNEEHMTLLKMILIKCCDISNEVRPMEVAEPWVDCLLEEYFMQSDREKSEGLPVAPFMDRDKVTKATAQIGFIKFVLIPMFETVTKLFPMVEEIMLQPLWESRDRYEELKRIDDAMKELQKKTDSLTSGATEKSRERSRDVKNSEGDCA
The prepared samples were dispensed on black microplates (Multiwell 384 well plates, #3573, Corning Life Sciences, Lowell, MA, USA) using a 16-channel pipette (multi 16-channel, Finnpipette, Thermo Scientific, Essex, UK). The total reaction volume per well is 20 μl. At this time, 10 μl of 2% DMSO, 5 μl of substrate solution, and 5 μl of reaction solution were used as a negative control, and 10 μl of 2% DMSO, 5 μl of substrate solution, and 5 μl of PDE9A solution were used as a positive control. As the experimental group, 10 μl of the compound prepared in Example, 5 μl of the substrate solution, and 5 μl of the PDE9A solution were used. After pretreatment between the compound and the enzyme was performed for about 10 minutes before the enzyme-substrate reaction, 5 μl of cGMP was added to induce the enzyme reaction. During the reaction, each compound, enzyme, and substrate occupied 50%, 25%, and 25% of the total volume, respectively, and they were prepared at high concentrations of 2, 4, and 4 times, respectively, immediately before addition. After the enzymatic reaction, it was shaken lightly for 1 minute and the enzyme reaction was induced at room temperature for 1 hour. Then, 60 μl of a polarization detection solution prepared in advance was added to induce polarization.
Nanoparticles composed of trivalent metal ions are mixed in the fluorescence detection solution, which combines with phosphoric acid expose by enzymatic reaction to increase the molecular weight and induce polarization. After leaving for 2 hours at room temperature, the polarization (Fluorescence Polarization, FP) value was measured using a multilabel counter (Envision, PerkinElmer, Turku, Finland) (emission wavelength: P-535 nm, S-535 nm, excitation wavelength: 480 nm), and the result was expressed as an IC50 value, which is the concentration of the compound that inhibited PDE9A by 50% in vitro (Table 2).

In turn, `O=c1[nH]c(SCc2nc3cc(Cl)c([N+](=O)[O-])cc3o2)nc2c1cnn2C1CCOCC1` [Example 51, 6-(((5-chloro-6-nitrobenzo[d]oxazol-2-yl)methyl)thio)-1-(tetrahydro-2H-pyran-4-yl)-1,5-dihydro-4H-pyrazolo[3,4-d]pyrimidin-4-one] returned an IC50 of 35 nM.

Consider `O=c1[nH]c(SCc2nc3cc(Cl)cc(Cl)c3o2)nc2c1cnn2C1CCOCC1` [Example 54, 6-(((5,7-dichlorobenzo[d]oxazol-2-yl)methyl)thio)-1-(tetrahydro-2H-pyran4-yl)-1,5-dihydro-4H-pyrazolo[3,4-d]pyrimidin-4-one], for which the half-maximal inhibitory concentration (IC50) is 19 nM. This IC50 is about 1.8-fold lower than that of the compound before.

Turning to `COc1ccc2oc(CSc3nc4c(cnn4-c4ccccc4)c(=O)[nH]3)nc2c1` [Example 34, 6-(((5-methoxybenzo[d]oxazol-2-yl)methyl)thio)-1-phenyl-1,5-dihydro-4H-pyrazolo[3,4-d]pyrimidin-4-one], half-maximal inhibition (IC50) required 120 nM.

With `O=c1[nH]c(SCc2nc3ccc([N+](=O)[O-])cc3o2)nc2c1cnn2C1CCC(F)(F)CC1` [Example 37, 1-(4,4-difluorocyclohexyl)-6-(((6-nitrobenzo[d]oxazol-2-yl)methyl)thio)-1,5-dihydro-4H-pyrazolo[3,4-d]pyrimidin-4-one], the midpoint of inhibition, the IC50, lay at 74 nM.

For `COc1ccc2nc(CSc3nc4c(cnn4C4CCC(F)(F)CC4)c(=O)[nH]3)oc2c1` [Example 46, 1-(4,4-difluorocyclohexyl)-6-(((6-methoxybenzo[d]oxazol-2-yl)methyl)thio)-1,5-dihydro-4H-pyrazolo[3,4-d]pyrimidin-4-one], it took 3 nM to reach half-maximal inhibition (IC50).

`O=c1[nH]c(SCc2nc3ccccc3o2)nc2c1cnn2C1CCSCC1` [Example 9, 6-((benzo[d]oxazol-2-ylmethyl)thio)-1-(tetrahydro-2H-thiopyran-4-yl)-1,5-dihydro-4H-pyrazolo[3,4-d]pyrimidin-4-one] gave a half-inhibitory concentration (IC50) of 6 nM. Against the preceding compound, the IC50 is about 2-fold higher.

`CC(C)(C)c1ccc2oc(CSc3nc4c(cnn4-c4ccccc4)c(=O)[nH]3)nc2c1` [Example 27, 6-(((5-(tert-butyl)benzo[d]oxazol-2-yl)methyl)thio)-1-phenyl-1,5-dihydro-4H-pyrazolo[3,4-d]pyrimidin-4-one]: it took 6630 nM to reach half-maximal inhibition (IC50).

In turn, `Cc1cccc2oc(CSc3nc4c(cnn4-c4ccccc4)c(=O)[nH]3)nc12` [Example 26, 6-(((4-methylbenzo[d]oxazol-2-yl)methyl)thio)-1-phenyl-1,5-dihydro-4H-pyrazole[3,4-d]pyrimidin-4-one] registered a half-maximal inhibitory concentration (IC50) of 140 nM.

Consider `Cc1cc(C)c2oc(CSc3nc4c(cnn4C4CCOCC4)c(=O)[nH]3)nc2c1` [Example 55, 6-(((5,7-dimethylbenzo[d]oxazol-2-yl)methyl)thio)-1-(tetrahydro-2H-pyran-4-yl)-1,5-dihydro-4H-pyrazolo[3,4-d]pyrimidin-4-one], for which the midpoint of inhibition, the IC50, lay at 10 nM.

The compound `O=c1[nH]c(SCc2nc3ccccc3o2)nc2c1cnn2C1CCCCC1` [Example 12, 6-((benzo[d]oxazol-2-ylmethyl)thio)-1-cyclohexyl-1,5-dihydro-4H-pyrazolol[3,4-d]pyrimidin-4-one] gave an IC50 of 4 nM.

The compound `Cc1ccc2nc(CSc3nc4c(cnn4C4CCC(F)(F)CC4)c(=O)[nH]3)oc2c1` [Example 13, 6-(((6-methylbenzo[d]oxazol-2-yl)methyl)thio)-1-(4,4-difluorocyclohexyl)-1,5-dihydro-4H-pyrazolo[3,4-d]pyrimidin-4-one] gave a half-maximal inhibitory concentration (IC50) of 12 nM.

Regarding `CC(Sc1nc2c(cnn2C2CCOCC2)c(=O)[nH]1)c1nc2ccccc2o1` (stereo not shown) [Example 21], inhibition was half-maximal at 3 nM (IC50). This IC50 is about 4-fold lower than that of the compound before.

As for `O=c1[nH]c(SCc2nc3c([N+](=O)[O-])cccc3o2)nc2c1cnn2-c1ccccc1` [Example 30, 6-(((4-nitrobenzo[d]oxazol-2-yl)methyl)thio)-1-phenyl-1,5-dihydro-4H-pyrazolo[3,4-d]pyrimidin-4-one], the IC50 came to 1720 nM.

Compound `Cc1ccc2nc(CSc3nc4c(cnn4C4CCOCC4)c(=O)[nH]3)oc2c1` [Example 14, 6-(((6-methylbenzo[d]oxazol-2-yl)methyl)thio)-1-(tetrahydro-2H-pyran-4-yl)-1,5-dihydro-4H-pyrazolo[3,4-d]pyrimidin-4-one] registered an IC50 of 4 nM. This IC50 is about 430-fold lower than that of the compound before.

The compound `Cc1ccc2nc(CSc3nc4c(cnn4C4CCSCC4)c(=O)[nH]3)oc2c1` [Example 15, 6-(((6-methylbenzo[d]oxazol-2-yl)methyl)thio)-1-(tetrahydro-2H-thiopyran-4-yl)-1,5-dihydro-4H-pyrazolo[3,4-d]pyrimidin-4-one] showed an IC50 of 10 nM. Against the preceding compound, the IC50 is about 2.5-fold higher.

With `Cc1cc(C)c2oc(CSc3nc4c(cnn4-c4ccccc4)c(=O)[nH]3)nc2c1` [Example 33, 6-(((5,7-dimethylbenzo[d]oxazol-2-yl)methyl)thio)-1-phenyl-1,5-dihydro-4H-pyrazolo[3,4-d]pyrimidin-4-one], it took 950 nM to reach half-maximal inhibition (IC50).

The compound `O=c1[nH]c(SCc2nc3cc(Cl)cc(Cl)c3o2)nc2c1cnn2-c1ccccc1` [Example 32, 6-(((5,7-dichlorobenzo[d]oxazol-2-yl)methyl)thio)-1-phenyl-1,5-dihydro-4H-pyrazolo[3,4-d]pyrimidin-4-one] yielded an inhibition at 10 µM of 27.7%.

The compound `COc1ccc2nc(CSc3nc4c(cnn4-c4ccccc4)c(=O)[nH]3)oc2c1` [Example 35, 6-(((6-methoxybenzo[d]oxazol-2-yl)methyl)thio)-1-phenyl-1,5-dihydro-4H-pyrazolo[3,4-d]pyrimidin-4-one] gave an inhibition at 10 µM of 83.6%.

Compound `Cc1ccc2nc(CSc3nc4c(cnn4-c4ccccc4)c(=O)[nH]3)oc2c1` [Example 5, 6-(((6-methylbenzo[d]oxazol-2-yl)methyl)thio)-1-phenyl-1,5-dihydro-4H-pyrazolol[3,4-d]pyrimidin-4-one] showed an IC50 of 49 nM.

As to `Cc1cccc2oc(CSc3nc4c(cnn4C4CCC(F)(F)CC4)c(=O)[nH]3)nc12` [Example 41, 1-(4,4-difluorocyclohexyl)-6-(((4-methylbenzo[d]oxazol-2-yl)methyl)thio)-1,5-dihydro-4H-pyrazolo[3,4-d]pyrimidin-4-one], it took 22 nM to reach half-maximal inhibition (IC50). This IC50 lies about 2.2-fold lower than the previous one.

Compound `O=c1[nH]c(SCc2nc3ccc([N+](=O)[O-])cc3o2)nc2c1cnn2-c1ccccc1` [Example 28, 6-(((6-nitrobenzo[d]oxazol-2-yl)methyl)thio)-1-phenyl-1,5-dihydro-4H-pyrazolol[3,4-d]pyrimidin-4-one] had an inhibition at 10 µM of 51.5%.

In the case of `O=c1[nH]c(SCc2nc3ccccc3o2)nc2c1cnn2C1CCOCC1` [Example 1, 6-((benzo[d]oxazol-2-ylmethyl)thio)-1-(tetrahydro-2H-pyran-4-yl)-1,5-dihydro-4H-pyrazolo[3,4-d]pyrimidin-4-one], the IC50 turned out to be 5 nM.

On to `CC(Sc1nc2c(cnn2C2CCC(F)(F)CC2)c(=O)[nH]1)c1nc2ccccc2o1` (stereo not shown) [Example 20], for which half-maximal inhibition (IC50) required 6 nM.

Consider `O=c1[nH]c(SCc2nc3cc(Br)ccc3o2)nc2c1cnn2-c1ccccc1` [Example 7, 6-(((5-bromobenzo[d]oxazol-2-yl)methyl)thio)-1-phenyl-1,5-dihydro-4H-pyrazolo[3,4-d]pyrimidin-4-one], for which the 50% inhibitory concentration (IC50) is 100 nM.

Turning to `O=c1[nH]c(SCc2nc3c([N+](=O)[O-])cccc3o2)nc2c1cnn2C1CCOCC1` [Example 50, 6-(((4-nitrobenzo[d]oxazol-2-yl)methyl)thio)-1-(tetrahydro-2H-pyran-4-yl)-1,5-dihydro-4H-pyrazolo[3,4-d]pyrimidin-4-one], the midpoint of inhibition, the IC50, lay at 130 nM.

As to `O=c1[nH]c(SCc2nc3ccccc3o2)nc2c1cnn2-c1ccccc1` [Example 2, 6-((benzo[d]oxazol-2-ylmethyl)thio)-1-phenyl-1,5-dihydro-4H-pyrazolo[3,4-d]pyrimidin-4-one], the concentration for half-maximal inhibition (IC50) is 49 nM.

In turn, `O=c1[nH]c(SCc2nc3c([N+](=O)[O-])cccc3o2)nc2c1cnn2C1CCC(F)(F)CC1` [Example 39, 1-(4,4-difluorocyclohexyl)-6-(((4-nitrobenzo[d]oxazol-2-yl)methyl)thio)-1,5-dihydro-4H-pyrazolo[3,4-d]pyrimidin-4-one] gave an IC50 of 77 nM.

In turn, `O=c1[nH]c(SCc2nc3cc([N+](=O)[O-])ccc3o2)nc2c1cnn2C1CCOCC1` [Example 49, 6-(((5-nitrobenzo[d]oxazol-2-yl)methyl)thio)-1-(tetrahydro-2H-pyran-4-yl)-1,5-dihydro-4H-pyrazolo[3,4-d]pyrimidin-4-one] returned a 50% inhibitory concentration (IC50) of 32 nM.
